Experimental data: the supplement of paper PMC10307832

Columns and labels:
Test in all cases: relative viability (nuclei count vs DMSO), 5 days (fraction); higher = more cells survive
[1] = compound: C1CC2=C(C1)C=C(C=C2)OC3=NC(=C4C(=N3)N(C=N4)CC5=CC=C(C=C5)C6=CC=CC=C6)N[C@@H](CC7=CC=CC=C7)CO [QS11] + CC1(C)CCC(c2ccc(Cl)cc2)=C(CN2CCN(c3ccc(C(=O)NS(=O)(=O)c4ccc(N[C@H](CCN5CCOCC5)CSc5ccccc5)c(S(=O)(=O)C(F)(F)F)c4)cc3)CC2)C1 [Navitoclax] (partner 0.5 µM)
Procedure, shortened: (§1)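 Relative viability divides the nuclei count in treated wells by that in vehicle wells. Lung cancer cell lines were seeded in 1536-well plates, dosed by pin tool the next day, and fixed and stained after 5 days in one step with final 0.05% Triton X-100, 1% formaldehyde and 1 ug/ml Hoechst. Dosing was a single drug or a fixed anchor-drug dose plus five library-drug doses (not always all listed) in √10 steps, and values are medians of duplicate plates imaged at 4×.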

[2] = compound: CC1=C(C=C(C=C1)NC(=O)C2=CC(=CC=C2)C(C)(C)C#N)NC3=CC4=C(C=C3)N=CN(C4=O)C [AZ628] + CC1(C)CCC(c2ccc(Cl)cc2)=C(CN2CCN(c3ccc(C(=O)NS(=O)(=O)c4ccc(N[C@H](CCN5CCOCC5)CSc5ccccc5)c(S(=O)(=O)C(F)(F)F)c4)cc3)CC2)C1 [Navitoclax] (partner 0.5 µM)
Procedure, shortened: as §1

[3] = compound: CC1=C(C=C(C=C1)NC(=O)C2=CC(=CC=C2)C(C)(C)C#N)NC3=CC4=C(C=C3)N=CN(C4=O)C [AZ628] + CC(=O)c1c(C)c2cnc(Nc3ccc(N4CCNCC4)cn3)nc2n(C2CCCC2)c1=O [Palbociclib] (partner 0.5 µM)
Procedure, shortened: as §1

[4] = compound: C[As](C)SC[C@H](NC(=O)CC[C@H](N)C(=O)O)C(=O)NCC(=O)O [Darinaparsin] + Nc1nc2[nH]cc(CCc3ccc(C(=O)N[C@@H](CCC(=O)O)C(=O)O)cc3)c2c(=O)[nH]1 [Pemetrexed] (partner 0.2 µM)
Procedure, shortened: as §1

Cell Line	relative viability ([1]; first compound 0.08 µM)	relative viability ([1]; first compound 0.253 µM)	relative viability ([1]; first compound 0.8 µM)	relative viability ([1]; first compound 2.53 µM)	relative viability ([1]; first compound 8 µM)	relative viability ([2]; first compound 0.08 µM)	relative viability ([2]; first compound 0.253 µM)	relative viability ([2]; first compound 0.8 µM)	relative viability ([2]; first compound 2.53 µM)	relative viability ([2]; first compound 8 µM)	relative viability ([3]; first compound 0.08 µM)	relative viability ([3]; first compound 0.253 µM)	relative viability ([3]; first compound 0.8 µM)	relative viability ([3]; first compound 2.53 µM)	relative viability ([3]; first compound 8 µM)	relative viability ([4]; first compound 0.08 µM)	relative viability ([4]; first compound 0.8 µM)	relative viability ([4]; first compound 2.53 µM)	relative viability ([4]; first compound 8 µM)
BEN	0.0566	0.0797	0.0702	0.047	0.0634	0.0576	0.0642	0.0651	0.0689	0.0471	0.487	0.489	0.46	0.51	0.452	0.873	0.848	0.818	0.859
NCI-H1993	0.833	0.761	0.997	0.946	0.893	1	0.872	0.859	0.688	0.709	0.685	0.548	0.496	0.595	0.266	0.617	0.66	0.599	0.64
NCI-H2405	0.778	0.757	0.901	0.894	0.768	0.49	0.64	0.53	0.415	0.575	0.4	0.4	0.347	0.35	0.353	1.24	0.872	1.07	1.14
NCI-H2126	0.867	0.796	0.67	0.823	0.62	0.894	0.886	0.866	0.794	0.624	0.351	0.325	0.323	0.383	0.32	0.74	0.594	0.666	0.805
LK-2	0.763	0.888	0.975	0.762	1.11	1.07	0.887	0.847	0.818	0.634	0.911	0.849	0.412	0.736	0.366	0.24	–	0.286	0.329
SK-MES-1	1.43	1.25	1.21	1.45	1.37	1.22	1.25	1.39	1.23	1.21	0.361	0.343	0.246	0.324	0.328	1.17	0.924	0.924	1.12
NCI-H1944	1.06	1.1	–	1.07	0.973	1.14	1.04	1	0.949	0.921	0.359	0.312	0.305	0.311	0.229	0.663	0.687	0.649	0.57
SW 1573	0.937	0.795	0.9	0.842	0.564	0.905	0.746	0.851	0.902	0.436	0.409	0.312	0.275	0.291	0.173	1	0.84	0.815	0.939
PC-14	1.1	1.02	0.95	1.03	0.921	1.03	0.997	1.1	1.17	0.977	0.521	0.517	0.343	0.455	0.219	0.134	0.131	0.128	0.143
LC-2-ad	0.407	0.357	0.488	0.335	0.384	0.406	0.348	0.589	0.54	0.347	0.473	0.51	0.424	0.468	0.373	0.283	0.272	0.27	0.289
201T	1.19	1.22	0.994	1.24	1.17	1.22	1.21	1.25	1.27	1.23	0.368	0.358	0.381	0.39	0.366	0.374	0.33	0.33	0.363
NCI-H2023	1.02	1.02	0.925	1.16	1.12	1.01	1.02	1.03	0.996	0.762	0.45	0.381	0.239	0.406	0.153	0.335	0.231	0.202	0.227
HOP-62	1.07	1.15	1.04	0.785	1.22	1.09	1.17	1.02	1.1	0.729	0.49	0.473	0.491	0.492	0.314	0.421	0.36	0.276	0.361
NCI-H1734	0.803	0.96	0.751	0.568	0.663	0.864	0.718	0.818	0.791	0.502	0.367	0.301	0.299	0.319	0.225	0.421	0.389	0.442	0.466
EKVX	0.957	0.863	–	0.891	1.1	0.982	0.925	1.11	0.966	0.589	0.393	0.374	0.478	0.452	0.3	0.458	0.385	0.388	0.412
NCI-H1355	0.876	0.869	0.791	1.03	0.881	0.99	0.808	0.931	0.903	0.746	0.411	0.397	0.388	0.373	0.294	1.16	1.08	0.906	1.07
